Results published in patent US6242199A, “Assays for growth hormone secretagogue receptors” (Merck & Co., Inc., priority 1998, dated 2001).

Columns and labels:
rat GHSR type Ia = experiment: Aequorin bioluminescence in transfected 293-AEQ17 (HEK-293) cells, rat GHSR; assay type: cell-based; settings: three replicate samples; mobilization of intracellular calcium
Protocol: Functional activity of the ORF construct was assessed by transfecting (using lipofectamine; GIBCO/BRL) 5 μg of plasmid DNA into the aequorin expressing reporter cell line (293-AEQ17) cultured in 60 mm dishes. Following approximately 40 hours of expression the aequorin in the cells was charged for 2 hours with coelenterazine, the cells were harvested, washed and pelleted by low speed centrifugation into luminometer tubes. Functional activity was determined by measuring Compound A dependent mobilization of intracellular calcium and concommitant calcium induced aequorin bioluminescence.

[1] = biological target: T1, growth hormone secretagogue receptor (GHSR), rat pituitary membranes (Rattus norvegicus, UniProt O08725); experiment: [35S]-Compound A radioreceptor binding, rat pituitary membranes
T1 construct: from the Wistar male rats (150-200 g); from tissue; host or cells: pituitary glands of male Wistar rats (150-200 g), crude membranes
Protocol: [^35 S]-Compound A was prepared from an appropriate precursor, N-[1(R)-[(1,2-dihydrospiro[3H-indole-3,4'-piperidin]-1'-yl)-carbonyl]-2-(phenyl-methyloxy)ethyl]-2-amino-t-butoxycarbonyl-2-methylpropanamide, using methane [^35 S]sulfonyl chloride as described in Dean DC, et al., 1995, In: Allen J, Voges R (eds) Synthesis and Applications of Isotopically Labelled Compounds, John Wiley & Sons, New York, pp. 795-801, Purification by semi-preparative HPLC (Zorbax SB-phenyl column, 68% MeOH/water, 0.1% TFA, 5 ml/min) was followed by N-t-BOC cleavage using 15% trifluroacetic acid in dichloromethane (25° C., 3 hr) to give [methylsulfonyl-^35 S]Compound A in near quantitative yield. HPLC purification (Hamilton PRP-1 4.6×250 mm column, linear gradient of 50-75% methanol-water with 1 mM HCl over 30 min, 1.3 ml/min) provided the ligand in >99% radiochemical purity. The structure was established by HPLC coelution with unlabeled Compound A and by mass spectral analysis. The latter method also indicated a specific activity of ~1000 Ci/mmol.
(§1) Frozen anterior pituitary glands from male swine (50-80 Kg) or from the Wistar male rats (150-200 g) were homogenized in a tissue homogenizer in ice-cold buffer (50 mM Tris-HCl buffer, pH 7.4, 5 mM MgCl2, 2.5 mM EDTA, 0.1% bovine serum albumin and 30 μg/ml bacitracin). The homogenates were centrifuged for 5 min at 1,400×g and the resulting supernatants were then centrifuged at 34,000×g for 20 min. The pellets were resuspended in same buffer to a 1,500 μg protein/ml and stored at -80° C. Protein was determined by a Bio-Rad method (Bio-Rad Laboratories, Richmond, Calif.).
The standard binding solution contained: […] of 25 mM Tris-HCl buffer, pH 7.4, 10 mM MgCl2, 2.5 mM EDTA, and 100 pM [^35 S]-Compound A. Pituitary membranes (100 μl, 150 μg protein) were added to initiate the binding reaction. […] The filters were washed three times with 3-ml of ice-cold buffer (50 mM Tris-HCl, pH 7.4, 10 mM MgCl2, 2.5 mM EDTA and 0.015% Triton X-100) and the radioactivity on the filters were counted in Aquasol 2. […]

[2] = biological target: T2, growth hormone secretagogue receptor (GHSR), porcine anterior pituitary membranes (Sus scrofa, UniProt Q95254); experiment: [35S]-Compound A radioreceptor binding, porcine anterior pituitary membranes
T2 construct: Frozen anterior pituitary glands from male swine (50-80 Kg); from tissue; host or cells: anterior pituitary glands of male swine (50-80 kg), crude membranes
Protocol: as §1
Aliquots were incubated at 20° C. for 60 min and bound radioligand was separated from free by filtration through GF/C filters pretreated with 0.5% of polyethylenimine in a Brandel cell harvester. […] Assays were carried out in triplicate and experiments repeated at least three times.

T2 sequence (Q95254 whole entry): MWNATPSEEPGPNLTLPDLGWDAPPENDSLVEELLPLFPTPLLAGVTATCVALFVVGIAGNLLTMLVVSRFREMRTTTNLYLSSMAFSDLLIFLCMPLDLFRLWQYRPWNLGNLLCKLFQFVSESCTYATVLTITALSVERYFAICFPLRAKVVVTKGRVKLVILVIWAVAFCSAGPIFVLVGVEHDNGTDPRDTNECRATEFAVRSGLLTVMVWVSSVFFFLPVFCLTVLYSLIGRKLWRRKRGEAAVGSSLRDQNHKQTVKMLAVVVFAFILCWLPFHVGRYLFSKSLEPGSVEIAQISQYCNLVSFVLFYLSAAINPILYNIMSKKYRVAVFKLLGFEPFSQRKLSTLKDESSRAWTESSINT
T1 sequence (O08725 whole entry): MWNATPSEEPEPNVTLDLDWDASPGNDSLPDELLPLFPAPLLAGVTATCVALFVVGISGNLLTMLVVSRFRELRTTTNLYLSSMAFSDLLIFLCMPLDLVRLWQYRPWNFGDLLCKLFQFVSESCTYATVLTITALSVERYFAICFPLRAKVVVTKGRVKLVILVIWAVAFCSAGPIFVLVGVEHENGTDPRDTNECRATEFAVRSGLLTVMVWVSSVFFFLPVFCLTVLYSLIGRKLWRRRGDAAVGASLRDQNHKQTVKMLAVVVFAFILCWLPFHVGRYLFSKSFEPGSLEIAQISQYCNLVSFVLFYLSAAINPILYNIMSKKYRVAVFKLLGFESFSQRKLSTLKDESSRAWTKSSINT

specific binding of total binding ([1]; rat membranes, nonspecific in 500 nM unlabeled Compound A): 45-60% | Bmax ([1]; rat pituitary membranes, n=3): 2.3±1.1 fmol/mg protein | Kd ([1]; rat pituitary membranes, n=3): 0.18 ± 0.009 nM | specific binding of [35S]-Compound A detected in the absence of Mg2+ ([2]; absence of Mg2+, in comparison with control (10 mM Mg2+)): 15-25% | Ki ([2]; competition with [35S]-Compound A, read-out: inhibition constant, Ki): 0.24 nM | concentration (Bmax) ([2]; porcine anterior pituitary membranes, Scatchard analysis, n=4): 6.3±0.6 fmol/mg of protein | Kd ([2]; porcine anterior pituitary membranes, Scatchard analysis, n=4, read-out: apparent dissociation constant (KD)): 0.161 ± 0.011 nM | specific binding of total binding ([2]; porcine membranes, nonspecific in 500 nM unlabeled Compound A): 65-85% | displacement of / competition with [35S]-Compound A binding (in words) ([2]; unlabeled competitor, FIG. 24): completely displaced
SMILES: CC(C)(N)C(=O)N[C@H](COCc1ccccc1)C(=O)N1CCC2(CC1)CN(S(C)(=O)=O)c1ccccc12 [Compound A, (N-[1(R)-[1,2-dihydro-1-methanesulfonlylspiro[3H-indole-3,4'-piperidin]-1'-yl)carbonyl]-2-(phenylmethyloxy)-ethyl]-2-amino-2-methyl-propanamide]
Compound A induced luminescent response (in words) (rat GHSR type Ia): Compound A induced luminescent responses
